Measurements taken from patent EP0362382A1, “METHOD OF STERILIZING PLANT POLLEN” (VSESOJUZNY NAUCHNO-ISSLEDOVATELSKY INST. SELSKOKHOZYAISTV. …, priority 1988, dated 1989).

Assays:
diploidem Roggen = assay: Field test of gametocidal activity (sterilisation of anthers), diploid rye; format: in vivo; conditions: 1%ige wäßrige Emulsion
Text: (§1) Die gametozide Aktivitat der erfindungsgemäßen Sterilisationsmittel war im Feldversuch in verschiedenen bodenklimatischen Zonen mit Teilstücken von 10 m^2 Größe in drei- bis viermaliger Wiederholung festgestellt. Jedes Sterilisationsmittel wurde mindenstens 5 Jahre lang geprüft.
(§2) Die Entwicklung der Perioden der Organogenese wird zytologisch überwacht. Die Behandlung von Pflanzen mit dem Sterilisationsmittel erfolgt am Anfang der fünften Periode der Organogenese nach Kupermann.
(§3) Mit dem Ährenschieben verwirklicht man die Isolierung von Hauptähren und anderen Stockwerken in Pergamentbeuteln. Bei Weizen und Tritikale werden Einzelisolatoren benutzt. Bei Roggen schließt man je Ähre 5 bis 7 verschiedene nebeneinander befindliche Pflanzen unter einen gemeinsamen Isolator ein. Bei Hierse wird jede Rispe getrennt isoliert. Der Sterilitätsprozentsatz (X) für Weizen, Roggen, Tritikale und Hirse wird nach der Formel [formula] ermittelt.
(§4) Die Kornzahl in nicht isolierten Ähren von Kontrollpflanzen wird bedingt für 100 % Ansetzen bei freier Bestäubung angenommen.
(§5) Um zuverlässige Angaben zu erhalten, verwendet man 20 bis 25 Isolatoren jeder Wiederholung für Weizen und Tritikale, 10 .bis 15 Isolatoren jeder Wiederholung für Roggen und Hirse.
Pflanzen von diploidem Roggen Sorte Wosohod 2 werden in der V. Periode der Organogenese (nach Kupermann) mit 1%iger wäßriger Emulsion von Bis(di-n-butyläther) der δ, δ' -Thiodivaleriansäure, 4-Krboxybutyldezylsulfid, Natriumsalz der δ, δ' -Thiodivaleriansäure, Bis(2-äthylhexyläther) der δ, δ' -Thiodivaleriansäure, δ, δ' -Sulfonyldivaleriansäure, Natriumsalz der δ, δ'-Sulfonyldivaleriansäure, Kaliumsalz der δ, δ' -Sulfonyldivaleriansäure behandelt. Die Emulsion enthält 0,1 Masse% […] mit 12 bis 14 Kohlenstoffatomen und 0,01 Masse% Tetrahydrofuran. Der Verbrauch an Präparat beträgt 6 kg/ha. Als Kontrolle dienen Pflanzen, behandelt mit einem Verdünner ohne Sterilisationsmittel.
Pflanzen von diploidem Roggen Sorte Gibrid 1861/79 werden in der V. und VI. Periode der Organogenese (nach Kupermann) mit 1%iger wäßriger Emulsion von Bis(di-n-butyläther) der δ, δ' -Thiodivaleriansäure, δ, δ' -Thiodivaleriansäure, Natriumsalz der δ δ' -Thiodivaleriansäure, 4-Karboxybutyldezylsulfid, δ , δ' -Sulfonyldivaleriansäure, Kaliumsalz der δ, δ' -Sulfonyldivaleriansäuleriansäure, Kaliumalz der δ' -Sulfonyldivaleriansäure, Bis(2-äthylhexyläther) der δ, δ' -Thiodivaleriansäure behandelt. Die Emulsion enthält 0,1 Masse% Kalziumalkylbenzolsulfonat mit 12 bis 14 Kohlenstoffatomen und 0,01 Masse% Dimethylformamid. Der Verbrauch an Präparat beträgt 8 kg/ha. Als Kontrolle dienen Pflanzen, behandelt mit einem Verdünner ohne Sterilisationsmittel. Die Prüfergebnisse sind in der Tabelle 10 angegeben.

Winterweizen = assay: Field test of gametocidal activity (sterilisation of anthers), winter wheat; format: in vivo; conditions: V. Periode der Organogenese, 2%ige wäßrige Emulsion
Text: as §1, §2, §3, §4, §5
Pflanzen des Winterweizens Sorte Mironowskaja 808 werden in der V. Periode der Organogenese durch Zerstäubung der 2%igen wäßrigen Emulsion der δ, δ' -Thiodivaleriansäure mit Hilfe einer Rückenspritze behandelt. Als Emulgiermittel wird 0,1 Masse% Kalziumalkylbenzalsulfonat mit 12 bis 14 Kohlenstoffatomen hinzugefügt. Als Adjuvans führt man in die Emulsion 0,01 Masse% Dimethylsulfoxid ein. Der Verbrauch an Präparat beträgt 20 kg/ha. Als Kontrolle dienen Pflanzen, behandelt mit einem Verdünner ohne Sterilisationsmittel. Die Ergebnisse sind in der Tabelle 1 angegeben. […] Periode der Organogenese erhalten.
Der Prozeß erfolgt analog zu dem im Beispiel 1 bescnriebenen. Als Sterilisationsmittel benutzt man 2%ige wäßrige Emulsion von Natriumsalz der δ, δ'-Thiodivaleriansäure, δ, δ' -Sulfonyldivaleriansäure, Natriumsalz der δ, δ' -Sulfonyldivaleriansäure, Kaliumsalz der δ, δ'--Sulfonyldivaleriansäure, Bis(di-n-butyläther) der δ, δ'--Thiodivaleriansäure, 4-Karboxybutyldezylsulfid bzw.
Pflanzen des Winterweizens Sorte Korall werden in der V. Periode der Organogenese (nach Kupermann) mit 2%iger wäßriger Emulsion von Bis(2-äthylhexyläther) der δ, δ' --Thiodivaleriansäure, 4-Karboxybutyldezylsulfid bzw. Bis(di--n-butyläther) der δ, δ' -Thiodivalerianqäure behandelt. Die Emulsion enthält 0,1 Masse% Kalziumalkylbenzolsulfonat mit 12 bis 14 Kohlenstoffatomen und 0,01 Masse% Dodezylsulfat. Der Verbrauch an Präparat beträgt 12 kg/ha. Als Kontrolle dienen Pflanzen, behandelt mit einem Verdünner ohne Sterilisationsmittel. Die Prüfergebnisse sind in der Tabelle 2 angegeben.
Pflanzen des Winterweizens Gordeiforme 12303 werden in der V. Periode der Organogenese (nach Kupermann) mit 2%iger wäßriger Emulsion von 4-Karboxybutyldezylsulfid, Bis(2-äthylhexyläther) der δ, δ' -Thiodivaleriansäure, δ, δ' -Sulfonyldivaleriansäure behandelt. Die Emulsion enthält als Emulgiermittel 0,1 Masse% Kalziumalkylbenzolsulfonat mit 12 bis 14 Kohlenstoffatomen und 0,01 Masse% Dimethylformamid. Der Verbrauch an Präparat beträgt 16 kg/ha. Als Kontrolle dienen Pflanzen, behandelt mit einem Verdünner ohne Sterilisationsmittel.

[1] = Sorte Wosohod 2, V. Periode der Organogenese, 6 kg/ha
[2] = Sorte Gibrid 1861/79, V. und VI. Periode der Organogenese, 8 kg/ha
[3] = Sorte Mironowskaja 808, 20 kg/ha

Compound | Anzahl von Körnern der Ähre bei freier Bestäubung (diploidem Roggen; [1]) | Anzahl von Körnern der Ähre im Isolator (diploidem Roggen; [1]) | Prozentsatz der Sterilität (diploidem Roggen; [1]) | Prozentsatz des Ansetzens von Körnern bei freier Bestäubung (diploidem Roggen; [1]) | Anzahl von Körnern der Ähre bei freier Bestäubung (Winterweizen; [3]) | Anzahl von Körnern der Ähre im Isolator (Winterweizen; [3]) | Prozentsatz der Sterilität (Winterweizen; [3]) | Prozentsatz des Ansetzens von Körnern bei freier Bestäubung (Winterweizen; [3]) | also measured
CCCCOC(=O)CCCCSCCCCC(=O)OCCCC [Beispiel 37, Bis(di-n-butyläther) der δ, δ' -Thiodivaleriansäure] | 50,9 | 0,0 | 100,0% | 93,2% |  |  |  |  | 
CCCCC(CC)COC(=O)CCCCSCCCCC(=O)OCC(CC)CCCC (stereo not shown) [Beispiel 50, Bis(2-äthylhexyläther) der δ, δ' -Thiodivaleriansäure] |  |  |  |  |  |  |  |  | Anzahl von Körnern der Ähre bei freier Bestäubung (diploidem Roggen; [2]): 53,2; Anzahl von Körnern der Ähre im Isolator (diploidem Roggen; [2]): 0,0; Prozentsatz der Sterilität (diploidem Roggen; [2]): 100,0%; Prozentsatz des Ansetzens von Körnern bei freier Bestäubung (diploidem Roggen; [2]): 84,7%
O=C([O-])CCCCSCCCCC(=O)[O-].[Na+].[Na+] [Beispiel 2, Natriumsalz der δ, δ'-Thiodivaleriansäure] |  |  |  |  | 35,3 | 0,3 | 99,3% | 85,7% | 
O=C(O)CCCCS(=O)(=O)CCCCC(=O)O [Beispiel 43, Kaliumsalz der δ, δ' -Sulfonyldivaleriansäure] | 53,8 | 0,6 | 98,8% | 98,5% |  |  |  |  | 
CCCCC(CC)COC(=O)CCCCSCCCCC(=O)OCC(CC)CCCC (stereo not shown) [Beispiel 9, Bis(2-äthylhexyläther) der δ, δ' --Thiodivaleriansäure] |  |  |  |  |  |  |  |  | Anzahl von Körnern der Ähre bei freier Bestäubung (Winterweizen; Sorte Korall, 12 kg/ha): 30,8; Anzahl von Körnern der Ähre im Isolator (Winterweizen; Sorte Korall, 12 kg/ha): 0,0; Prozentsatz der Sterilität (Winterweizen; Sorte Korall, 12 kg/ha): 100,0%; Prozentsatz des Ansetzens von Körnern bei freier Bestäubung (Winterweizen; Sorte Korall, 12 kg/ha): 95,1%
O=C(O)CCCCSCCCCC(=O)O [Beispiel 39, Natriumsalz der δ, δ' -Thiodivaleriansäure] | 50,5 | 0,1 | 99,8% | 92,5% |  |  |  |  | 
CCCCC(CC)COC(=O)CCCCSCCCCC(=O)OCC(CC)CCCC (stereo not shown) [Beispiel 40, Bis(2-äthylhexyläther) der δ, δ' -Thiodivaleriansäure] | 52,9 | 0,0 | 100,0% | 96,9% |  |  |  |  | 
O=C(O)CCCCS(=O)(=O)CCCCC(=O)O [Beispiel 42, Natriumsalz der δ, δ'-Sulfonyldivaleriansäure] | 47,4 | 0,1 | 99,8% | 86,8% |  |  |  |  | 
Bis(di--n-butyläther) der δ, δ' -Thiodivalerianqäure [Beispiel 11] |  |  |  |  |  |  |  |  | Anzahl von Körnern der Ähre bei freier Bestäubung (Winterweizen; Sorte Korall, 12 kg/ha): 30,2; Anzahl von Körnern der Ähre im Isolator (Winterweizen; Sorte Korall, 12 kg/ha): 0,1; Prozentsatz der Sterilität (Winterweizen; Sorte Korall, 12 kg/ha): 99,5%; Prozentsatz des Ansetzens von Körnern bei freier Bestäubung (Winterweizen; Sorte Korall, 12 kg/ha): 93,2%
O=C(O)CCCCS(=O)(=O)CCCCC(=O)O [Beispiel 41, δ, δ' -Sulfonyldivaleriansäure] | 48,4 | 0,1 | 99,8% | 88,6% |  |  |  |  | 
CCCCCCCCCCSCCCCC(=O)O [Beispiel 38, 4-Krboxybutyldezylsulfid] | 50,5 | 0,0 | 100,0% | 92,5% |  |  |  |  | 
O=C(O)CCCCS(=O)(=O)CCCCC(=O)O [Beispiel 49, Kaliumsalz der δ, δ' -Sulfonyldivaleriansäuleriansäure] |  |  |  |  |  |  |  |  | Anzahl von Körnern der Ähre bei freier Bestäubung (diploidem Roggen; [2]): 57,0; Anzahl von Körnern der Ähre im Isolator (diploidem Roggen; [2]): 0,0; Prozentsatz der Sterilität (diploidem Roggen; [2]): 100,0%; Prozentsatz des Ansetzens von Körnern bei freier Bestäubung (diploidem Roggen; [2]): 90,8%
CCCCOC(=O)CCCCSCCCCC(=O)OCCCC [Beispiel 44, Bis(di-n-butyläther) der δ, δ' -Thiodivaleriansäure] |  |  |  |  |  |  |  |  | Anzahl von Körnern der Ähre bei freier Bestäubung (diploidem Roggen; [2]): 60,0; Anzahl von Körnern der Ähre im Isolator (diploidem Roggen; [2]): 0,0; Prozentsatz der Sterilität (diploidem Roggen; [2]): 100,0%; Prozentsatz des Ansetzens von Körnern bei freier Bestäubung (diploidem Roggen; [2]): 95,5%
CCCCCCCCCCSCCCCC(=O)O [Beispiel 12, 4-Karboxybutyldezylsulfid] |  |  |  |  |  |  |  |  | Anzahl von Körnern der Ähre bei freier Bestäubung (Winterweizen; Gordeiforme 12303, 16 kg/ha): 21,6; Anzahl von Körnern der Ähre im Isolator (Winterweizen; Gordeiforme 12303, 16 kg/ha): 0,0; Prozentsatz der Sterilität (Winterweizen; Gordeiforme 12303, 16 kg/ha): 100,0%; Prozentsatz des Ansetzens von Körnern bei freier Bestäubung (Winterweizen; Gordeiforme 12303, 16 kg/ha): 74,2%
CCCCCCCCCCSCCCCC(=O)O [Beispiel 7, 4-Karboxybutyldezylsulfid] |  |  |  |  | 35,6 | 0,0 | 100,0% | 86,4% | 
CCCCC(CC)COC(=O)CCCCSCCCCC(=O)OCC(CC)CCCC (stereo not shown) [Beispiel 8] |  |  |  |  | 36,1 | 0,0 | 100,0% | 87,6% | 
Bis(di-n-butyläther) der δ, δ'--Thiodivaleriansäure [Beispiel 6] |  |  |  |  | 34,8 | 0,0 | 100,0% | 84,5% | 
O=C(O)CCCCS(=O)(=O)CCCCC(=O)O [Beispiel 3, δ, δ' -Sulfonyldivaleriansäure] |  |  |  |  | 37,2 | 0,0 | 100,0% | 90,3% | 
CCCCCCCCCCSCCCCC(=O)O [Beispiel 10, 4-Karboxybutyldezylsulfid] |  |  |  |  |  |  |  |  | Anzahl von Körnern der Ähre bei freier Bestäubung (Winterweizen; Sorte Korall, 12 kg/ha): 29,1; Anzahl von Körnern der Ähre im Isolator (Winterweizen; Sorte Korall, 12 kg/ha): 0,1; Prozentsatz der Sterilität (Winterweizen; Sorte Korall, 12 kg/ha): 99,5%; Prozentsatz des Ansetzens von Körnern bei freier Bestäubung (Winterweizen; Sorte Korall, 12 kg/ha): 89,8%
O=C(O)CCCCSCCCCC(=O)O [Beispiel I, δ, δ' -Thiodivaleriansäure] |  |  |  |  | 37,0 | 0,5 | 98,8% | 89,8% | 
O=C([O-])CCCCS(=O)(=O)CCCCC(=O)[O-].[Na+].[Na+] [Beispiel 4, Natriumsalz der δ, δ' -Sulfonyldivaleriansäure] |  |  |  |  | 34,1 | 0,1 | 99,8% | 82,8% | 
CCCCC(CC)COC(=O)CCCCSCCCCC(=O)OCC(CC)CCCC (stereo not shown) [Beispiel 13, Bis(2-äthylhexyläther) der δ, δ' -Thiodivaleriansäure] |  |  |  |  |  |  |  |  | Anzahl von Körnern der Ähre bei freier Bestäubung (Winterweizen; Gordeiforme 12303, 16 kg/ha): 25,3; Anzahl von Körnern der Ähre im Isolator (Winterweizen; Gordeiforme 12303, 16 kg/ha): 0,0; Prozentsatz der Sterilität (Winterweizen; Gordeiforme 12303, 16 kg/ha): 100,0%; Prozentsatz des Ansetzens von Körnern bei freier Bestäubung (Winterweizen; Gordeiforme 12303, 16 kg/ha): 86,9%
